Laboratory results from patent publication US11472842B2 (Protagonist Therapeutics, Inc., priority 2015, dated 2022).
Read-outs that look alike come from different tables or passages of the source.

Target: T1, human ferroportin (Homo sapiens, UniProt Q9NP59)
T1 construct: expressed in transfected cells
T1 sequence (Q9NP59 1-571): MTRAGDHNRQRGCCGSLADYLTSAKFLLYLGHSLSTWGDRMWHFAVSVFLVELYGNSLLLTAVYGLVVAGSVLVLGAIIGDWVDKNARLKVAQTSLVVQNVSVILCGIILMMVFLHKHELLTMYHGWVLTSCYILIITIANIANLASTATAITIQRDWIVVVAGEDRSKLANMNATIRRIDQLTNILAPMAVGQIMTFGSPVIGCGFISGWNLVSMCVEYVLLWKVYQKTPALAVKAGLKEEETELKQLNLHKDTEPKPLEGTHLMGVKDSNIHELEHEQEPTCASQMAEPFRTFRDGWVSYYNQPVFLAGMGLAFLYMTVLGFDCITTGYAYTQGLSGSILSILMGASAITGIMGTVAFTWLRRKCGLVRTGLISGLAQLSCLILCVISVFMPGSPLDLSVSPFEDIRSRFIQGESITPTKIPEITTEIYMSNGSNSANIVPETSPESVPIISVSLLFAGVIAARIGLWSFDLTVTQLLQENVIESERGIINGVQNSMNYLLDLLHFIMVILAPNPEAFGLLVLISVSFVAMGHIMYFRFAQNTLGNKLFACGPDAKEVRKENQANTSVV
Assay: Ferroportin internalization / degradation, HEK-GFP cell based assay (HEK293 cells stably expressing ferroportin-GFP, decrease in GFP fluorescence)
Protocol: Peptide analogues were tested in vitro for induction of internalization of the human ferroportin protein. Following internalization, the […] are degraded. The assay measures a decrease in fluorescence of the receptor.
The cDNA encoding the human ferroportin (SLC40A1) was cloned from a cDNA clone from Origene (NM_014585). The DNA encoding the ferroportin was amplified by PCR using primers also encoding terminal restriction sites for subcloning, but without the termination codon. The ferroportin receptor was subcloned into a mammalian GFP expression vector containing a neomycin (G418) resistance marker in such that the reading frame of the ferroportin was fused in frame with the GFP protein. The fidelity of the DNA encoding the protein was confirmed by DNA sequencing. HEK293 cells were used for transfection of the ferroportin-GFP receptor expression plasmid. The cells were grown according to standard protocol in growth medium and transfected with the plasmids using Lipofectamine (manufacturer's protocol, Invitrogen). […] The cells were propagated and frozen in aliquots.
Compound was added to desired final concentration for at least 18 hours in the incubator. […] Compound was added to desired final concentration for at least 18 hours but no more than 24 hours in the incubator.
The EC50 of these reference compounds for ferroportin degradation was determined according to the activity assay described above. These peptides served as control standards.
These values were determined as described herein.

[1] = Table 3 monomer analogues, ferroportin-GFP HEK293 cells, 18-24 h incubation, read-out: HEK-GFP cell based assay (potency EC50)

SMILES	DC50 [1]	also measured
CCCCCCCCCCCCCCCC(=O)NCCOCCOCCC(=O)NCCCC[C@@H]1NC(=O)[C@H](Cc2ccccc2)NC(=O)[C@H](CCCCN)NC(=O)[C@H]([C@@H](C)CC)NC(=O)[C@@H](NC(=O)[C@@H]2CCCN2C(=O)[C@H](Cc2ccccc2)NC(=O)[C@H](Cc2c[nH]cn2)NC(=O)[C@@H](NC(=O)[C@H](CC(=O)O)NC(=O)CC(C)C)[C@@H](C)O)CSSC[C@@H](C(=O)N[C@@H](CCCCN)C(N)=O)NC(=O)CNC(=O)[C@H](CCCCN)NC(=O)[C@H](CO)NC(=O)[C@H](CCCNC(=N)N)NC(=O)[C@@H]2CCCN2C1=O [Compound 16]	36 nM	–
CCCCCCCCCCCCCCCC(=O)NCCCC[C@@H]1NC(=O)[C@H](Cc2ccccc2)NC(=O)[C@H](CCCCN)NC(=O)[C@H]([C@@H](C)CC)NC(=O)[C@@H](NC(=O)[C@@H]2CCCN2C(=O)[C@H](Cc2ccccc2)NC(=O)[C@H](Cc2c[nH]cn2)NC(=O)[C@@H](NC(=O)[C@H](CC(=O)O)NC(=O)CC(C)C)[C@@H](C)O)CSSC[C@@H](C(=O)N[C@@H](CCCCN)C(N)=O)NC(=O)CNC(=O)[C@H](CCCCN)NC(=O)[C@H](CO)NC(=O)[C@H](CCCNC(=N)N)NC(=O)[C@@H]2CCCN2C1=O [Compound 20]	19 nM	–
CCCCCCCCCCCCCCCC(=O)NCCCCCC(=O)NCCCC[C@@H]1NC(=O)[C@H](Cc2ccccc2)NC(=O)[C@H](CCCCN)NC(=O)[C@H]([C@@H](C)CC)NC(=O)[C@@H](NC(=O)[C@@H]2CCCN2C(=O)[C@H](Cc2ccccc2)NC(=O)[C@H](Cc2c[nH]cn2)NC(=O)[C@@H](NC(=O)[C@H](CC(=O)O)NC(=O)CC(C)C)[C@@H](C)O)CSSC[C@@H](C(=O)N[C@@H](CCCCN)C(N)=O)NC(=O)CNC(=O)[C@H](CCCCN)NC(=O)[C@H](CO)NC(=O)[C@H](CCCNC(=N)N)NC(=O)[C@@H]2CCCN2C1=O [Compound 22]	18 nM	–
CCCCCCCCCCCCCCCC(=O)NCCCCCC(=O)NCCCC[C@@H]1NC(=O)[C@H]([C@@H](C)CC)NC(=O)[C@@H](NC(=O)[C@@H]2CCCN2C(=O)[C@H](Cc2ccccc2)NC(=O)[C@H](Cc2c[nH]cn2)NC(=O)[C@@H](NC(=O)[C@H](CC(=O)O)NC(=O)CC(C)C)[C@@H](C)O)CSSC[C@@H](C(=O)N[C@@H](CCCCN)C(N)=O)NC(=O)CN(C)C(=O)[C@H](CCCCN)NC(=O)[C@H](CO)NC(=O)[C@H](CCCNC(=N)N)NC(=O)[C@@H]2CCCN2C(=O)[C@H](CCC(=O)O)NC(=O)[C@H](Cc2ccccc2)NC1=O [Compound 23, Isovaleric acid-DTHFPCI-[Lys(Ahx-Palm)]-FEPRSK-[Sar]-CK-NH2]	6 nM	–
CCCCCCCCCCCCCCCC(=O)NCCCCCC(=O)NCCCC[C@@H]1NC(=O)[C@H](Cc2ccccc2)NC(=O)[C@H](CCCCN)NC(=O)[C@H]([C@@H](C)CC)NC(=O)[C@@H](NC(=O)[C@@H]2CCCN2C(=O)[C@H](Cc2ccccc2)NC(=O)[C@H](Cc2c[nH]cn2)NC(=O)[C@@H](NC(=O)[C@H](CC(=O)O)NC(=O)CC(C)C)[C@@H](C)O)CSSC[C@@H](C(=O)N[C@@H](CCCCN)C(N)=O)NC(=O)CN(C)C(=O)[C@H](CCCCN)NC(=O)[C@H](CO)NC(=O)[C@H](CCCNC(=N)N)NC(=O)[C@@H]2CCCN2C1=O [Compound 24]	10 nM	–
CC[C@H](C)[C@@H]1NC(=O)[C@@H](NC(=O)[C@@H]2CCCN2C(=O)[C@H](Cc2ccccc2)NC(=O)[C@H](Cc2c[nH]cn2)NC(=O)[C@@H](NC(=O)[C@H](CC(=O)O)NC(=O)CC(C)C)[C@@H](C)O)CSSC[C@@H](C(=O)N[C@@H](CCCCN)C(N)=O)NC(=O)CNC(=O)[C@H](CCCCN)NC(=O)[C@H](CO)NC(=O)[C@H](CCCNC(=N)N)NC(=O)[C@@H]2CCCN2C(=O)[C@H](CCCCNC(C)=O)NC(=O)[C@H](Cc2ccccc2)NC(=O)[C@H](CCCCN)NC1=O [Compound 25]	14 nM	–
CCCCCCCCCCCCCCCC(=O)NCCCCCC(=O)N[C@@H](CCC(=O)NCCCC[C@@H]1NC(=O)[C@H]([C@@H](C)CC)NC(=O)[C@@H](NC(=O)[C@@H]2CCCN2C(=O)[C@H](Cc2ccccc2)NC(=O)[C@H](Cc2c[nH]cn2)NC(=O)[C@@H](NC(=O)[C@H](CC(=O)O)NC(=O)CC(C)C)[C@@H](C)O)CSSC[C@@H](C(=O)N[C@@H](CCCCN)C(N)=O)NC(=O)CN(C)C(=O)[C@H](CCCCN)NC(=O)[C@H](CO)NC(=O)[C@H](CCCNC(=N)N)NC(=O)[C@@H]2CCCN2C(=O)[C@H](CCC(=O)O)NC(=O)[C@H](Cc2ccccc2)NC1=O)C(=O)O [Compound 28, Isovaleric acid-DTHFPCI-[Lys(isoGlu-Ahx-Palm)]-FEPRSK-[Sar]-CK-NH2]	23 nM	–
CC[C@H](C)[C@H](NC(=O)[C@H](CS)NC(=O)[C@@H](NC(=O)[C@@H]1CCCN1C(=O)[C@H](Cc1ccccc1)NC(=O)[C@H](Cc1c[nH]cn1)NC(=O)[C@@H](NC(=O)[C@@H](N)CC(=O)O)[C@@H](C)O)[C@@H](C)CC)C(=O)N[C@@H](Cc1ccccc1)C(N)=O [Mini-Hepcidin 1-9, reference compound]	–	EC50 (Table 9 reference compounds, ferroportin degradation, read-out: Potency EC50): 712 nM
CC[C@@H](C)[C@@H](NC(=O)[C@H](N)Cc1ccccc1)C(=O)N[C@H](CS)C(=O)N[C@@H](C(=O)N1CCC[C@@H]1C(=O)N[C@H](Cc1ccccc1)C(=O)N[C@H](Cc1c[nH]cn1)C(=O)N[C@@H](C(=O)N[C@H](CC(=O)O)C(N)=O)[C@H](C)O)[C@H](C)CC [RI-Mini Hepcidin, Hy-DPhe-DIle-DCys-DIle-DPro-DPhe-DHis-DThr-DAsp-NH2, reference compound]	–	DC50 (Table 9 reference compounds, read-out: Potency EC50): > 10000 nM
